Results taken from publication PMC4097020 (Psychopharmacology, 2014).
Like-named read-outs stand apart in the source and are kept apart here. Marks after values point to notes of the source that are not given here.

Legend:
[1] = biological target: T1, recombinant human 5-HT1A receptor (Homo sapiens, UniProt P08908); assay: [3H]8-OH-DPAT binding to HEK-h5-HT1A cell membranes
T1 sequence (P08908 1-422): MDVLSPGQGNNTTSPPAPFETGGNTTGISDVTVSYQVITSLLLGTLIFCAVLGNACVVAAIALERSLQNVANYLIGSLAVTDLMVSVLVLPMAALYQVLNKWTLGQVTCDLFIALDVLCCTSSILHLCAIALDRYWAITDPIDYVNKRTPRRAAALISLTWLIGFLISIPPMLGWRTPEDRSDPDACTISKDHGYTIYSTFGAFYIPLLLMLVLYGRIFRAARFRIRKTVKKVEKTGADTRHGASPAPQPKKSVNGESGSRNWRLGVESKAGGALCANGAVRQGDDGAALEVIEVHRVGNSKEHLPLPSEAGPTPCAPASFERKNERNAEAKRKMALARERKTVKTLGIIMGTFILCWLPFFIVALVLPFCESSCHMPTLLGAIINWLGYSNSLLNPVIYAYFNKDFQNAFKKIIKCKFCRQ

[2] = biological target: recombinant human 5-HT2A receptor (Homo sapiens, UniProt P28223); assay: [125I]DOI binding to HEK-h5-HT2A cell membranes
h5-HT2A receptor [3] = biological target: T2, h5-HT2A receptor (Homo sapiens, UniProt P28223); assay: IP-1 formation in HEK-h5-HT2A cells; type: cell-based; conditions: for agonist character at h5-HT2A receptor, IP-1 formation (in words): compared to 5-HT
h5-HT2A receptor [4] = biological target: T2, h5-HT2A receptor; type: binding
h5-HT2A receptor [5] = biological target: T2, h5-HT2A receptor; type: binding; remark: listed apart in the source
[6] = biological target: T3, recombinant human D2 receptor (Homo sapiens, UniProt P14416); assay: biochemical; type: binding
human D4.4 receptor = biological target: T4, human D4.4 receptor (Homo sapiens, UniProt P21917); assay: biochemical; type: binding
T4 sequence (P21917 1-419): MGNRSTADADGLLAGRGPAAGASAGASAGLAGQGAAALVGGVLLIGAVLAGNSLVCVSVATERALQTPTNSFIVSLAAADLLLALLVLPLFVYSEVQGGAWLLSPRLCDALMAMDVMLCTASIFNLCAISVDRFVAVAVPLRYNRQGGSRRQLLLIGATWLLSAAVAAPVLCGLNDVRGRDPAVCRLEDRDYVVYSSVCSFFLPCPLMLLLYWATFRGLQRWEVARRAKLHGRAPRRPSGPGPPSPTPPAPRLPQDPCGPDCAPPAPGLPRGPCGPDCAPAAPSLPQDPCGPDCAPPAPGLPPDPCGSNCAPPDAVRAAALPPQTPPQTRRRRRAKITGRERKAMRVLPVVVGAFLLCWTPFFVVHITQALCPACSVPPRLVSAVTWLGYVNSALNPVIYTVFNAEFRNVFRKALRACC

[7] = biological target: T5, recombinant human 5-HT2C receptor (Homo sapiens, UniProt P28335); assay: biochemical; type: binding
T5 sequence (P28335 33-458): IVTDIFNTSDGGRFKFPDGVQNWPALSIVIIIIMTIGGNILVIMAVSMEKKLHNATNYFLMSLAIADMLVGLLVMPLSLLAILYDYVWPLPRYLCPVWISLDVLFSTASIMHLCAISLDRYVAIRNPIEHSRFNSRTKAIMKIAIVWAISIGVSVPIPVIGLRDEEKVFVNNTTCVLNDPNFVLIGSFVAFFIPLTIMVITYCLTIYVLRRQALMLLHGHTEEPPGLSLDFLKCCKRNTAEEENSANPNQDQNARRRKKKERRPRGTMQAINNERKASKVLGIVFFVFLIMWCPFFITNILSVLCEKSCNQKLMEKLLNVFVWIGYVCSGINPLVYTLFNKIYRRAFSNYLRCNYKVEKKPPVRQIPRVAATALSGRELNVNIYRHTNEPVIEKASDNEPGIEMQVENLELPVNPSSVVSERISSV

[8] = prophylactic use; from 8.7 to 14 mg/kg with free/whole brain ratio […]
[9] = varies by preparation, ref Wiedekam et al., 1998, cited from earlier work
[10] = test system: nontransfected HEK-293 cells; assay: IP-1 accumulation in nontransfected HEK-293 cells; type: cell-based, human; conditions: (+)mefloquine 100 μM, 5-HT 1 μM, LSD 10 nM
[11] = biological target: T6, recombinant human norepinephrine transporter (Homo sapiens, UniProt P23975); assay: biochemical; type: binding
[12] = biological target: recombinant human D1 receptor (Homo sapiens, UniProt P21728); assay: [3H]SCH23390 binding to LhD1 cells; conditions: read-out: D1 [3H]SCH23390 Ki (nM) ± SEM
[13] = biological target: T7, recombinant human D3 receptor (Homo sapiens, UniProt P35462); assay: [3H]YM 09151-2 binding to CHOp-D3 cells
[14] = biological target: T3, recombinant human D2 receptor; assay: cell-based; type: cell-based
[15] = biological target: T7, recombinant human D3 receptor; conditions: for agonist activity at hD3 receptor, mitogenesis (in words): compared to quinpirole
h5-HT2C receptor = biological target: T8, h5-HT2C receptor (Homo sapiens, UniProt P28335); assay: cell-based
T8 sequence (P28335 33-458): T5 sequence (P28335 33-458)

[16] = biological target: T9, recombinant human dopamine transporter (Homo sapiens, UniProt Q01959); assay: [125I]RTI-55 binding to HEK-hDAT cells
[17] = biological target: T9, recombinant human dopamine transporter; assay: [3H]dopamine uptake by HEK-hDAT cells; type: cell-based
[18] = biological target: T6, recombinant human norepinephrine transporter; assay: cell-based
[19] = read-out: D2 [3H]YM 09151-2 Ki, in μM
[20] = read-out: D4.4 [3H]YM 09151-2 Ki, in μM
[21] = read-out: h5-HT2C [125I]DOI Ki (nM) ± SEM, HEK-h5-HT2C membranes

T7 sequence (P35462 whole entry): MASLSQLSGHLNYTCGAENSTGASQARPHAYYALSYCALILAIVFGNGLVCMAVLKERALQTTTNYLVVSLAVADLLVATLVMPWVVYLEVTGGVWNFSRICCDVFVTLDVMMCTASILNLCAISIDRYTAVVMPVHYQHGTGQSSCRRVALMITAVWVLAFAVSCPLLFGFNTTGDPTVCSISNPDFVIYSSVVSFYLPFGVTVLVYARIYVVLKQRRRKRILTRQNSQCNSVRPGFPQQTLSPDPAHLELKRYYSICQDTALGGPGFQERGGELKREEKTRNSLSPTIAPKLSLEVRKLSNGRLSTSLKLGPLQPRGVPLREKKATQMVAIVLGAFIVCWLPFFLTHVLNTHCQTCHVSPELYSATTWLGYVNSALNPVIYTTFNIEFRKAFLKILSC
T3 sequence (P14416 whole entry): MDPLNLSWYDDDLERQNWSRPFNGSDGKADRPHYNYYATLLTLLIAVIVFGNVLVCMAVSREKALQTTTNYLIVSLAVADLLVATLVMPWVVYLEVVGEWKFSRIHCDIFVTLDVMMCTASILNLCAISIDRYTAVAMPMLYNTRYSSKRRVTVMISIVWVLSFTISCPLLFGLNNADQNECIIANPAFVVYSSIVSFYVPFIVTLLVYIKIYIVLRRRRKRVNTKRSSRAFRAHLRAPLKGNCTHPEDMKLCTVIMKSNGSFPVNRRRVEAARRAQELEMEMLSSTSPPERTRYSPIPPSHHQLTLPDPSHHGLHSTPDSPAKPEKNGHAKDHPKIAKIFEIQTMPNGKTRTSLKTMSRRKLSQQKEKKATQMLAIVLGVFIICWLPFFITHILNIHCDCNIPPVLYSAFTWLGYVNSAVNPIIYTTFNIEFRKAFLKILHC
T2 sequence (P28223 whole entry): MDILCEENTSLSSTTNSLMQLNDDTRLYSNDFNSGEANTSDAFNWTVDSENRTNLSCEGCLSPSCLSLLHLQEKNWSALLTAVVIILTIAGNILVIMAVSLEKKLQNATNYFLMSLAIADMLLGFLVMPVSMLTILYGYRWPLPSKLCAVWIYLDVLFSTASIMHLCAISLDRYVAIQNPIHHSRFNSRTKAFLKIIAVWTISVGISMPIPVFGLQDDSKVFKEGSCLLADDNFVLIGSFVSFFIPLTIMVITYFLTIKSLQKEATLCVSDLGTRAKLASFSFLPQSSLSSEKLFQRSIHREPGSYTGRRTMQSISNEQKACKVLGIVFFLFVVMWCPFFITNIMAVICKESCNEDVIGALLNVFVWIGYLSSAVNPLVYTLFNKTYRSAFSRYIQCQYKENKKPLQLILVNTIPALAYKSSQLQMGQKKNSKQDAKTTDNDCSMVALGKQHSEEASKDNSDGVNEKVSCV
T6 sequence (P23975 whole entry): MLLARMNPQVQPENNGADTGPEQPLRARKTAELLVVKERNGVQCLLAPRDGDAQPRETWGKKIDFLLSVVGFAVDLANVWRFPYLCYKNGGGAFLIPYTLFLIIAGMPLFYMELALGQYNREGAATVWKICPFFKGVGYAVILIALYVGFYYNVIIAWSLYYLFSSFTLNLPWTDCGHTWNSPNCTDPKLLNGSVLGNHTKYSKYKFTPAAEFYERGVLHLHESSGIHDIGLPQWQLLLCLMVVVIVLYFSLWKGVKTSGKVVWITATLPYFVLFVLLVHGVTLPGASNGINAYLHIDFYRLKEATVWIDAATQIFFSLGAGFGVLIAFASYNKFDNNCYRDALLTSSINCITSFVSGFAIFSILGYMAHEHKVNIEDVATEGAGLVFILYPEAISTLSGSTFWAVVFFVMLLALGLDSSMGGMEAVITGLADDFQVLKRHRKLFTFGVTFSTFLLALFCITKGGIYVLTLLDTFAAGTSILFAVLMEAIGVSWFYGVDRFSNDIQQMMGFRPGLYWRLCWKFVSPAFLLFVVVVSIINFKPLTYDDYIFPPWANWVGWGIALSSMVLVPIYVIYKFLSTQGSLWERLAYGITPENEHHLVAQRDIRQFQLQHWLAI
T9 sequence (Q01959 whole entry): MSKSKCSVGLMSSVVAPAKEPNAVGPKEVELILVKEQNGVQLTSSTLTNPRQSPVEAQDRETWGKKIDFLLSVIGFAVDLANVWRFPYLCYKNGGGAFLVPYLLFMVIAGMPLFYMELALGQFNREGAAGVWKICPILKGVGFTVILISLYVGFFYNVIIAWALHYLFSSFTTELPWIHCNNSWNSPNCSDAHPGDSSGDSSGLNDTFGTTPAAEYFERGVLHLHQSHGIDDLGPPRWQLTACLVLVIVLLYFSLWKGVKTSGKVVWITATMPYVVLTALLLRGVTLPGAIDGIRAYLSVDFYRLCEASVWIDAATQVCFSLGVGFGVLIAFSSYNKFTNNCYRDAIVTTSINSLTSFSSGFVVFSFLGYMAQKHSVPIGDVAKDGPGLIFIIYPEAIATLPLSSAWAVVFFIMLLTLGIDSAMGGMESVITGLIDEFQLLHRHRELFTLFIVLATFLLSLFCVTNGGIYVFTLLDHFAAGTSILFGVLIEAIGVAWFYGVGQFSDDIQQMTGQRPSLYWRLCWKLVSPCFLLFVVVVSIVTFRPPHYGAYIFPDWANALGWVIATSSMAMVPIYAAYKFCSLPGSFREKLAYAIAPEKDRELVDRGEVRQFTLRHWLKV
Chain of recombinant human 5-HT2A receptor (P28223 whole entry): as the sequence (P28223 whole entry) above
Chain of recombinant human D1 receptor (P21728 whole entry): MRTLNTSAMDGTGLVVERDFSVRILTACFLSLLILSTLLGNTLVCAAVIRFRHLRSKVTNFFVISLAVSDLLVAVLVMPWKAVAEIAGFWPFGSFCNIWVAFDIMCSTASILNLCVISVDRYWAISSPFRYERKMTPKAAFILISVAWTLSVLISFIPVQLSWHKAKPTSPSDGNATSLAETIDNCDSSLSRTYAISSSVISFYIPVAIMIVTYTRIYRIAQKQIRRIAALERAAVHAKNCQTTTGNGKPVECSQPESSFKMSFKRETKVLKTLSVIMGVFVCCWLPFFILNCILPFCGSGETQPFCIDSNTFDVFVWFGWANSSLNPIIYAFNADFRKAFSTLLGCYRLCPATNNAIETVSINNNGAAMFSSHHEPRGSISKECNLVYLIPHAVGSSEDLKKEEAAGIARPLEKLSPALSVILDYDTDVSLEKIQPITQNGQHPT

`COc1cc(CC(C)N)c(OC)cc1C` (centres unmarked) [DOM, 2,5-dimethoxy-4-methylamphetamine] gave a Ki [1] of 14200 nM, a Ki [2] of 4.3 ± 1.2 nM and an EC50 (h5-HT2A receptor [3]) of 24.7 ± 8.5 nM. For the same compound, the “agonist character at h5-HT2A receptor, IP-1 formation (in words)” value (shortened to “agonist character at h5-HT2A receptor”) (h5-HT2A receptor [3]) was “full agonists”, the Ki (h5-HT2A receptor [4]) was 2.06 ± 0.52 nM and the Ki (h5-HT2A receptor [5]) was 13.7 ± 6 nM. The “Ratio ketanserin/DOI Ki” value (h5-HT2A receptor [5]; h5-HT2A, Ki [3H]ketanserin over Ki [125I]DOI) was 6.65 ^**.
For `CN1CCc2cc(Cl)c(O)cc2C(c2ccccc2)C1` (centres unmarked) [SCH23390, 7-chloro-3-methyl-1-phenyl-1,2,4,5-tetrahydro-3-benzazepin-8-ol], the Ki [6] was 0.887 ± 0.017 µM and the Ki (human D4.4 receptor) was 9.7 ± 1.1 µM.
`OC(c1cc(C(F)(F)F)nc2c(C(F)(F)F)cccc12)C1CCCCN1` (single isomer, unassigned; (-)) [(−)-Mefloquine] gave a Ki [6, 19] of over 10 µM and a Ki (human D4.4 receptor; [20]) of over 10 µM.
Compound `CCN(CC)CCCC(C)Nc1ccnc2cc(Cl)ccc12` (racemic) [Chloroquine, (RS)-N′-(7-chloroquinolin-4-yl)-N, N-diethyl-pentane-1,4-diamine] has a Ki (human D4.4 receptor) of over 10 µM.
For `C[C@H](N)Cn1ccc2cc(F)c(Cl)cc21` [Ro60-0175], the Ki [7, 21] was 7.3 ± 1.6 nM.
For `OC(c1cc(C(F)(F)F)nc2c(C(F)(F)F)cccc12)C1CCCCN1` (stereo not drawn) [mefloquine, [(R*, S*)-2,8-bis(trifluoromethyl)quinolin-4-yl]-(2-piperidyl)methanol], the “increase of IP-1 above basal activity in transfected cells” value (h5-HT2A receptor [3]; HEK-h5-HT2A and HEK-h5-HT2C transfected cells together, 100 μM (+)mefloquine, Fig 2c) is given as 3–5 fold, the “free mefloquine in brain, translated from brain levels” value [8] is given as 100 to 135 nM and the Cmax ([9]; conversion of 1018 μg/L) is given as about 2600 nM. The Cmax [9] was 1018 ng/mL.
With `NCCc1c[nH]c2ccc(O)cc12` [5-HT, serotonin] the “effect on IP-1 accumulation in nontransfected cells (in words)” value (“effect on IP-1 accumulation” for short) [10] was “no effect”.
For `CN(C)CCc1c[nH]c2ccccc12` [DMT, N,N-dimethyltryptamine], the EC50 (h5-HT2A receptor [3]) was 227 ± 64 nM, the “agonist character at h5-HT2A receptor” value (h5-HT2A receptor [3]) was “partial agonist” and the Ki (h5-HT2A receptor [4]) was 53 ± 10 nM. For the same compound, the Ki (h5-HT2A receptor [5]) was 175 ± 42 nM.
For `CCN(CC)C(=O)[C@@H]1C=C2c3cccc4[nH]cc(c34)C[C@H]2N(C)C1` [LSD, lysergic acid diethylamide], the “agonist character at h5-HT2A receptor” value (h5-HT2A receptor [3]) was “full agonists”, the Ki ([11]; read-out: Norepinephrine transporter, inhibition of [125I]RTI-55 binding Ki (nM) ± SEM) was 5600 nM and the Ki [12] was 273 ± 89 nM. For the same compound, the Ki ([6]; read-out: D2 [3H]YM 09151-2 Ki (nM) ± SEM) was 0.0388 ± 0.0018 µM, the Ki ([13]; read-out: D3 [3H]YM 09151-2 Ki (nM) ± SEM) was 27.1 ± 1.3 nM and the Ki (human D4.4 receptor; read-out: D4.4 [3H]YM 09151-2 Ki (nM) ± SEM) was 0.33 ± 0.12 µM. The “D2 mitogenesis % stimulation” value [14] was 47.9 ± 6.2%, the “agonist activity at hD2 receptor, mitogenesis (in words)” value [14] was “partial agonist” and the EC50 ([14]; read-out: D2 mitogenesis EC50 (nM) ± SEM (n)) was 18.1 nM. The “effect on IP-1 accumulation” value [10] was “no effect”, the “agonist activity at hD3 receptor, mitogenesis (in words)” value [15] was “full agonist” and the “D3 mitogenesis % stimulation” value ([15]; normalized to the maximal stimulation by quinpirole) was 104.4 ± 6.1%. For the same compound, the EC50 ([15]; read-out: D3 mitogenesis EC50 (nM) ± SEM (n), agonist mode, NC: the data did not converge) was 48 ± 14 nM.
In the case of `CC(C)(C)[C@]1(O)CCN2C[C@H]3c4ccccc4CCc4cccc(c43)[C@@H]2C1` [Butaclamol], the inhibition at 0.03 µM ([14]; read-out: D2 mitogenesis % inhibition) is reported as 98.1 ± 1.9%.
For `O[C@H](c1cc(C(F)(F)F)nc2c(C(F)(F)F)cccc12)[C@@H]1CCCCN1` [(+)-Mefloquine], the Ki [6, 19] was over 10 µM, the Ki (human D4.4 receptor; [20]) was over 10 µM and the “antagonist activity at D2 receptor, mitogenesis (in words)” value ([14]; against quinpirole) was “no antagonist activity”. The “agonist activity at hD2 receptor, mitogenesis (in words)” value ([14]; compared to quinpirole) was “no agonist activity”, the “effect on IP-1 accumulation” value [10] was “no effect” and the “antagonist activity at D3 receptor, mitogenesis (in words)” value ([15]; against quinpirole) was “fully antagonized”. The “D3 mitogenesis % inhibition” value ([15]; antagonism of quinpirole (30 nM)-stimulated mitogenesis) was 97.3 ± 2.7% and the “agonist activity at hD3 receptor, mitogenesis (in words)” value [15] was “no agonist activity”.
Work on `Oc1cc2c(cc1O)C(c1ccccc1)CNCC2` (centres unmarked) [SKF 38393, 1-phenyl-2,3,4,5-tetrahydro-1H-3-benzazepine-7,8-diol] yielded a Ki [13] of 4300 ± 1800 nM and a Ki (human D4.4 receptor) of 28 ± 13 µM.
Compound `COc1ccccc1N1CCN(CCN(C(=O)C2CCCCC2)c2ccccn2)CC1` [WAY 100635] has a Ki [7, 21] of 3000 nM.
With `Cc1cc2c(cc1Cl)N(C(=O)Nc1ccc(Oc3cccnc3C)nc1)CC2` [SB242087] the Ki [1] was over 9300 nM, the Ki [2] was 120 ± 32 nM and the Ki [7] was 11.4 ± 4 nM. The IC50 (h5-HT2C receptor) was 0.167 ± 0.061 nM and the “h5-HT2C IP1 formation % inhibition” value (h5-HT2C receptor) was 93.7 ± 5.5%.
`C=C[C@H]1C[N@@]2CC[C@H]1C[C@H]2[C@H](O)c1ccnc2ccc(OC)cc12` [Quinine, (R)-(6-Methoxyquinolin-4-yl)((2S,4S,8R)-8-vinylquinuclidin-2-yl)methanol] gave a Ki [16] of over 8300 nM, a Ki [11] of over 5500 nM and an IC50 [17] of over 10000 nM. The IC50 [18] was over 10000 nM.
